Here are results for 28 molecules from US7135466B2 (Kirin Beer Kabushiki Kaisha, priority 1999, dated 2006).

The term IC50 denotes the concentration that inhibits the measured activity by half. Usually inhibition stands for the share of the control response that was lost under treatment.

For experiment [1], the target named is T1, c-kit (Homo sapiens, UniProt P10721).
T1 construct: MO7e (human megakaryocytic leukemia cell line) which had been arrested for 20 hr; endogenous in cells; host or cells: MO7e human megakaryocytic leukemia cell line
As to the kind of experiment: Inhibitory activity against c-kit autophosphorylation (MO7e cells, h-SCF). Type of experiment: cell-based. To be noted: for IC50: MO7e cells, 50 ng/ml h-SCF, read-out: c-kit IC50; for inhibition at 1 µM: Mo7e, figure within parentheses in −( ) or >1000( ), at 1000 nM. An outline of the steps:
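Phospho-c-kit ELISA: plate-bound PY-20 anti-phosphotyrosine captures lysate, anti-c-kit plus peroxidase-labelled secondary antibody detect, read at 450 nm. Lysates come from 20 hr-arrested MO7e cells given compound for 1 hr before a 5 min 50 ng/ml h-SCF stimulus.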

The target in experiment [2] is T2, PDGF-Ra (Homo sapiens, UniProt P16234).
T2 construct: host or cells: G-292 human osteosarcoma cells
The experiment is described as follows: Inhibitory activity against PDGF-Ra phosphorylation by PDGF-AA stimulation using G292. Type of experiment: cell-based. The conditions noted are these: for IC50: > means inhibition at indicated concentration not more than 50%, < and << not less than 50%, read-out: PDGF (E) IC50; for inhibition at 0.1 µM: G292, figure within parentheses in >100( ), at 100 nM, read-out: PDGF (E) inhibition (%) at 100 nM. An outline of the steps:
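Cells seeded in low-serum medium are exposed to test compound for one hour, then PDGF-AA (50 ng/ml) triggers receptor phosphorylation for 5 min at 37 °C. Phospho-PDGF-Ra in solubilized cells is quantified by anti-phosphotyrosine capture ELISA at 450 nm.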

T1 sequence (P10721 26-976): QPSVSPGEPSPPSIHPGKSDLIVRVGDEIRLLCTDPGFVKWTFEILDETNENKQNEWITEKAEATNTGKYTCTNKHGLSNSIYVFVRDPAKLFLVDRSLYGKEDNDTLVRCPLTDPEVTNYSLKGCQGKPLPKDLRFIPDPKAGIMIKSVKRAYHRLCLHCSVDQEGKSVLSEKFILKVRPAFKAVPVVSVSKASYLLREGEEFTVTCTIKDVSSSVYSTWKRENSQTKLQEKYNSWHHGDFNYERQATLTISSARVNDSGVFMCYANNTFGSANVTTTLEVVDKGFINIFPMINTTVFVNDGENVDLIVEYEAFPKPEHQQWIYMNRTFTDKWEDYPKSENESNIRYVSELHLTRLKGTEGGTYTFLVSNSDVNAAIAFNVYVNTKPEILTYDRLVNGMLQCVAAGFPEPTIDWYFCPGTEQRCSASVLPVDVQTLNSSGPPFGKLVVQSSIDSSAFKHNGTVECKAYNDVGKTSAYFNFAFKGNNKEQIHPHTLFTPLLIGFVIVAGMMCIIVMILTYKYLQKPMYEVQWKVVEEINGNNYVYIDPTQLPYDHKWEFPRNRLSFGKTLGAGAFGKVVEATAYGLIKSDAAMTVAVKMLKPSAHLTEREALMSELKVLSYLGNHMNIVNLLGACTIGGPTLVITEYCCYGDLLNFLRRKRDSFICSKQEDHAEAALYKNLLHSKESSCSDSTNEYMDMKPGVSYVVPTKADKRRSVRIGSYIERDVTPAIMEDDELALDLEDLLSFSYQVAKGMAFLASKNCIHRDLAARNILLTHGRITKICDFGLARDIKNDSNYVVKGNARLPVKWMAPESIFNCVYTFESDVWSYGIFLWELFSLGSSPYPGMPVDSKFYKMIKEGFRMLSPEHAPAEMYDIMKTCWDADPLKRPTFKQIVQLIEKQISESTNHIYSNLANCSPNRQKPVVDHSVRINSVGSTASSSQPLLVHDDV
T2 sequence (P16234 24-1089): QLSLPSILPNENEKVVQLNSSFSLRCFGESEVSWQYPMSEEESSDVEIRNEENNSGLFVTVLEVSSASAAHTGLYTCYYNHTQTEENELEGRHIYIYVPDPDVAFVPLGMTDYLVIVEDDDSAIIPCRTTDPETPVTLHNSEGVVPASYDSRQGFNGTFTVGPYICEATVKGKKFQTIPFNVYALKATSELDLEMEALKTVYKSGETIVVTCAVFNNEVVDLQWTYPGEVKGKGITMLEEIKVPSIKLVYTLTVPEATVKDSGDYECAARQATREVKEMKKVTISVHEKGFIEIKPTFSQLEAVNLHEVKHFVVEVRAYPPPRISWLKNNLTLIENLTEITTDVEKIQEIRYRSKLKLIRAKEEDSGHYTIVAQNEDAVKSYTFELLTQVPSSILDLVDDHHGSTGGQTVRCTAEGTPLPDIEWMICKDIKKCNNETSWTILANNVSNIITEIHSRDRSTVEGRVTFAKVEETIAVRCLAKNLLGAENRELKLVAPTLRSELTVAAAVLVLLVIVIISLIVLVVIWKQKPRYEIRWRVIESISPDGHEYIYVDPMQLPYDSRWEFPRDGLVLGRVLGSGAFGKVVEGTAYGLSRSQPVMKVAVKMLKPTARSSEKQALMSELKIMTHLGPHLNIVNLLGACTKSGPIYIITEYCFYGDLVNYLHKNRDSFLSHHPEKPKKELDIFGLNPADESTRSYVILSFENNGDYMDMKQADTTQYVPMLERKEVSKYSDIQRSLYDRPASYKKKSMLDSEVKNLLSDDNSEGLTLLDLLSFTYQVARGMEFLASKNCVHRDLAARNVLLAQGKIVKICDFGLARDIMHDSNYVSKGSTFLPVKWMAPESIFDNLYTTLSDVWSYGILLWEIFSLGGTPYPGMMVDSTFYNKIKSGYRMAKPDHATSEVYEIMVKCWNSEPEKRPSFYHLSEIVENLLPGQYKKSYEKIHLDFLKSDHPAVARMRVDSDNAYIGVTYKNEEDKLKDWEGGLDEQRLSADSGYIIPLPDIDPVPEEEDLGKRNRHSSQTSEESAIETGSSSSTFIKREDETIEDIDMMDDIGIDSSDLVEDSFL

Regarding `CCN(CC)CCNC(=O)Nc1cc(C)c(Oc2ccnc3cc(OC)c(OC)cc23)cc1C` [Example 623, N-[2-(Diethylamino)ethyl]-N′-{4-[(6,7-dimethoxy-4-quinolyl)oxy]-2,5-dimethylphenyl}urea], the half-inhibitory concentration (IC50) came out at 632 nM in experiment [1] and 90 nM in experiment [2].

In the case of `CCN(CC)CCNC(=O)Nc1ccc(Oc2ccnc3cc(OC)c(OC)cc23)c(C)c1C` [Example 624, N-[2-(Diethylamino)ethyl]-N′-{4-[(6,7-dimethoxy-4-quinolyl)oxy]-2,3-dimethylphenyl}urea], the IC50 turned out to be 436 nM in experiment [1] and 34 nM in experiment [2].

For the molecule `COc1cc2nccc(Oc3cc(C)c(NC(=O)NCCN(C)C)cc3C)c2cc1OC` [Example 625, N-{4-[(6,7-Dimethoxy-4-quinolyl)oxy]-2,5-dimethylphenyl}-N′-[2-(dimethylamino)ethyl]urea], the IC50 in experiment [1] turned out to be 596 nM. In experiment [2], the IC50 was above 100 nM and the inhibition at 0.1 µM worked out at 31%.

Turning to `COc1cc2nccc(Oc3ccc(NC(=O)NCCN(C)C)c(C)c3C)c2cc1OC` [Example 626, N-{4-[(6,7-Dimethoxy-4-quinolyl)oxy]-2,3-dimethylphenyl}-N′-[2-(dimethylamino)ethyl]urea], the half-inhibitory concentration (IC50) in experiment [1] came to 339 nM; in experiment [2] it was 49 nM.

As to `COc1cc2ncnc(Oc3ccc(NC(=O)NCCN(C)C)cc3)c2cc1OC` [Example 627, N-{4-[(6,7-Dimethoxy-4-quinazolinyl)oxy]phenyl}-N′-[2-(dimethylamino)ethyl]urea], the 50% inhibitory concentration (IC50) in experiment [1] came out at 774 nM; in experiment [2] it was 65 nM.

Turning to `COc1cc2nccc(Oc3ccc(NC(=O)NCCN4CCOCC4)cc3)c2cc1OC` [Example 628, N-{4-[(6,7-Dimethoxy-4-quinolyl)oxy]phenyl}-N′-(2-morpholinoethyl)urea], the IC50 in experiment [1] was 81 nM; in experiment [2] it was below 10 nM.

On to `COc1cc2ncnc(Oc3ccc(NC(=O)NCCN4CCOCC4)cc3)c2cc1OC` [Example 629, N-{4-[(6,7-Dimethoxy-4-quinazolinyl)oxy]phenyl}-N′-(2-morpholinoethyl)urea], for which the IC50 was 481 nM in experiment [1] and below 10 nM in experiment [2].

Take `CCN(CC)CCNC(=O)Nc1ccc(Oc2ncnc3cc(OC)c(OC)cc23)cc1OC` [Example 630, N-[2-(Diethylamino)ethyl]-N′-{4-[(6,7-dimethoxy-4-quinazolinyl)oxy]-2-methoxyphenyl}urea]: the inhibition at 1 µM in experiment [1] stood at 23%. In experiment [2], the IC50 stood at 36 nM.

For `COc1cc(Oc2ncnc3cc(OC)c(OC)cc23)ccc1NC(=O)NCCN1CCOCC1` [Example 631, N-{4-[(6,7-Dimethoxy-4-quinazolinyl)oxy]-2-methoxyphenyl}-N′-(2-morpholinoethyl)urea], the IC50 in experiment [1] was determined as 186 nM; in experiment [2] it was 39 nM.

For `COc1cc(Oc2ncnc3cc(OC)c(OC)cc23)ccc1NC(=O)NCCN1CCCC1` [Example 632, N-{4-[(6,7-Dimethoxy-4-quinazolinyl)oxy]-2-methoxyphenyl}-N′-(2-tetrahydro-1H-1-pyrrolylethyl)urea], the IC50 worked out at 223 nM in experiment [1] and 36 nM in experiment [2].

Consider `COc1cc(Oc2ncnc3cc(OC)c(OC)cc23)ccc1NC(=O)NCCCN1CCN(C)CC1` [Example 633, N-{4-[(6,7-Dimethoxy-4-quinazolinyl)oxy]-2-methoxyphenyl}-N′-[3-(4-methylpiperazino)-propyl]urea], for which the inhibition at 1 µM in experiment [1] was 28%. Further, the IC50 in experiment [2] stood at 58 nM.

Take `COc1cc2nccc(Oc3cc(C)c(NC(=O)NC4CCN(Cc5ccccc5)CC4)cc3C)c2cc1OC` [Example 634, N-(1-Benzyl-4-piperidyl)-N′-{4-[(6,7-dimethoxy-4-quinolyl)oxy]-2,5-dimethylphenyl}urea]: the inhibition at 1 µM in experiment [1] stood at 13%. For the same molecule, in experiment [2], the IC50 is above 100 nM and the inhibition at 0.1 µM was found to be 40%.

As for `COc1cc2nccc(Oc3ccc(NC(=O)NC4CCN(Cc5ccccc5)CC4)c(C)c3C)c2cc1OC` [Example 635, N-(1-Benzyl-4-piperidyl)-N′-{4-[(6,7-dimethoxy-4-quinolyl)oxy]-2,3-dimethylphenyl}urea], the inhibition at 1 µM in experiment [1] came out at 23%. Moreover, in experiment [2], the 50% inhibitory concentration (IC50) was above 100 nM and the inhibition at 0.1 µM was 25%.

As to `COc1cc2ncnc(Oc3ccc(NC(=O)NC4CCN(Cc5ccccc5)CC4)cc3)c2cc1OC` [Example 636, N-(1-Benzyl-4-piperidyl)-N′-{4-[(6,7-dimethoxy-4-quinazolinyl)oxy]phenyl}urea], the IC50 in experiment [1] amounted to 106 nM; in experiment [2], 33 nM.

As for `COc1cc2ncnc(Oc3ccc(NC(=O)NC4CCN(Cc5ccccc5)CC4)c(Cl)c3)c2cc1OC` [Example 637, N-(1-Benzyl-4-piperidyl)-N′-{2-chloro-4-[(6,7-dimethoxy-4-quinazolinyl)oxy]phenyl}urea], the IC50 stood at 375 nM in experiment [1] and 52 nM in experiment [2].

For the molecule `COc1cc2nccc(Oc3ccc(NC(=O)NC4CCN(Cc5ccccc5)CC4)c([N+](=O)[O-])c3)c2cc1OC` [Example 638, N-(1-Benzyl-4-piperidyl)-N′-{4-[(6,7-dimethoxy-4-quinolyl)oxy]-2-nitrophenyl}urea], the inhibition at 1 µM in experiment [1] was 16%. Further, in experiment [2], the IC50 was above 100 nM and the inhibition at 0.1 µM was determined as 43%.

Regarding `COc1cc2nccc(Oc3ccc(NC(=O)NC4CCN(Cc5ccccc5)CC4)cc3F)c2cc1OC` [Example 639, N-(1-Benzyl-4-piperidyl)-N′-{4-[(6,7-dimethoxy-4-quinolyl)oxy]-3-fluorophenyl}urea], the inhibition at 1 µM in experiment [1] worked out at 12%. Further, in experiment [2], the IC50 was above 100 nM and the inhibition at 0.1 µM came out at 29%.

On to `COc1cc2ncnc(Oc3ccc(NC(=O)NC4CCN(Cc5ccccc5)CC4)c([N+](=O)[O-])c3)c2cc1OC` [Example 640, N-(1-Benzyl-4-piperidyl)-N′-{4-[(6,7-dimethoxy-4-quinazolinyl)oxy]-2-nitrophenyl}urea], for which the IC50 in experiment [1] turned out to be 254 nM; in experiment [2], 35 nM.

As to `COc1cc(Oc2ncnc3cc(OC)c(OC)cc23)ccc1NC(=O)NC1CCN(Cc2ccccc2)CC1` [Example 641, N-(1-Benzyl-4-piperidyl)-N′-{4-[(6,7-dimethoxy-4-quinazolinyl)oxy]-2-methoxyphenyl}urea], the IC50 in experiment [1] came out at 293 nM; in experiment [2] it was 28 nM.

As to `COc1cc2nccc(Oc3ccc(NC(=O)NC4CCN(Cc5ccccc5)CC4)cc3C)c2cc1OC` [Example 642, N-(1-Benzyl-4-piperidyl)-N′-{4-[(6,7-dimethoxy-4-quinolyl)oxy]-3-methylphenyl}urea], the inhibition at 1 µM in experiment [1] amounted to 8%. Moreover, in experiment [2], the IC50 is above 100 nM and the inhibition at 0.1 µM came to 20%.

With `COc1cc2nccc(Oc3ccc(NC(=O)NC4CCN(Cc5ccccc5)CC4)c(C)c3)c2cc1OC` [Example 643, N-(1-Benzyl-4-piperidyl)-N′-{4-[(6,7-dimethoxy-4-quinolyl)oxy]-2-methylphenyl}urea], the inhibition at 1 µM in experiment [1] is 2%. For the same molecule, in experiment [2], the IC50 was above 100 nM and the inhibition at 0.1 µM was 40%.

With `COc1cc2nccc(Oc3ccc(NC(=O)NC4CCN(Cc5ccccc5)CC4)cc3Cl)c2cc1OC` [Example 644, N-(1-Benzyl-4-piperidyl)-N′-{3-chloro-4-[(6,7-dimethoxy-4-quinolyl)oxy]phenyl}urea], the inhibition at 1 µM in experiment [1] came out at 14%. In experiment [2], the IC50 is above 100 nM and the inhibition at 0.1 µM was 17%.

`CCN(CC)CCNC(=O)Nc1ccc(Oc2ncnc3cc(OC)c(OC)cc23)cc1Cl` [Example 645, N-{2-Chloro-4-[(6,7-dimethoxy-4-quinazolinyl)oxy]phenyl}-N′-[2-(diethylamino)ethyl]urea]: in experiment [1], the inhibition at 1 µM turned out to be 32%. In experiment [2], the IC50 was 23 nM.

For `CCN(CC)CCNC(=O)Nc1ccc(Oc2ccnc3cc(OC)c(OC)cc23)cc1[N+](=O)[O-]` [Example 646, N-[2-(Diethylamino)ethyl]-N′-{4-[(6,7-dimethoxy-4-quinolyl)oxy]-2-nitrophenyl}urea], the inhibition at 1 µM in experiment [1] is 0%. Further, in experiment [2], the IC50 stood at 11 nM.

Regarding `CCN(CC)CCNC(=O)Nc1ccc(Oc2ccnc3cc(OC)c(OC)cc23)c(C)c1` [Example 648, N-[2-(Diethylamino)ethyl]-N′-{4-[(6,7-dimethoxy-4-quinolyl)oxy]-3-methylphenyl}urea], the results for the IC50 in experiment [1] and in experiment [2] were 937 nM and 16 nM, respectively.

As for `CCN(CC)CCNC(=O)Nc1ccc(Oc2ccnc3cc(OC)c(OC)cc23)cc1Cl` [Example 650, N-{2-Chloro-4-[(6,7-dimethoxy-4-quinolyl)oxy]phenyl}-N′-[2-(diethylamino)ethyl]urea], the values for the concentration for half-maximal inhibition (IC50) in experiment [1] and in experiment [2] were 420 nM and 32 nM, respectively.

Turning to `CCN(CC)CCNC(=O)Nc1ccc(Oc2ccnc3cc(OC)c(OC)cc23)c(Cl)c1` [Example 651, N-{3-Chloro-4-[(6,7-dimethoxy-4-quinolyl)oxy]phenyl}-N′-[2-(diethylamino)ethyl]urea], the IC50 in experiment [1] stood at 808 nM; in experiment [2], 40 nM.

Take `COc1cc2ncnc(Oc3ccc(NC(=O)NCCN4CCOCC4)c([N+](=O)[O-])c3)c2cc1OC` [Example 652, N-{4-[(6,7-Dimethoxy-4-quinazolinyl)oxy]-2-nitrophenyl}-N′-(2-morpholinoethyl)urea]: the concentration for half-maximal inhibition (IC50) in experiment [1] was determined as 115 nM; in experiment [2], 43 nM.
